From ChEMBL document CHEMBL1144925, “Binding structures and potencies of oxidosqualene cyclase inhibitors with the homologous squalene-hopene cyclase” (J Med Chem, 2003)

How the values were obtained:
[1] = biological target: T1, Lanosterol synthase (Homo sapiens, UniProt P48449); experiment: Inhibitory activity against Oxidosqualene-lanosterol cyclase from human liver microsomes
T1 sequence (P48449 whole entry): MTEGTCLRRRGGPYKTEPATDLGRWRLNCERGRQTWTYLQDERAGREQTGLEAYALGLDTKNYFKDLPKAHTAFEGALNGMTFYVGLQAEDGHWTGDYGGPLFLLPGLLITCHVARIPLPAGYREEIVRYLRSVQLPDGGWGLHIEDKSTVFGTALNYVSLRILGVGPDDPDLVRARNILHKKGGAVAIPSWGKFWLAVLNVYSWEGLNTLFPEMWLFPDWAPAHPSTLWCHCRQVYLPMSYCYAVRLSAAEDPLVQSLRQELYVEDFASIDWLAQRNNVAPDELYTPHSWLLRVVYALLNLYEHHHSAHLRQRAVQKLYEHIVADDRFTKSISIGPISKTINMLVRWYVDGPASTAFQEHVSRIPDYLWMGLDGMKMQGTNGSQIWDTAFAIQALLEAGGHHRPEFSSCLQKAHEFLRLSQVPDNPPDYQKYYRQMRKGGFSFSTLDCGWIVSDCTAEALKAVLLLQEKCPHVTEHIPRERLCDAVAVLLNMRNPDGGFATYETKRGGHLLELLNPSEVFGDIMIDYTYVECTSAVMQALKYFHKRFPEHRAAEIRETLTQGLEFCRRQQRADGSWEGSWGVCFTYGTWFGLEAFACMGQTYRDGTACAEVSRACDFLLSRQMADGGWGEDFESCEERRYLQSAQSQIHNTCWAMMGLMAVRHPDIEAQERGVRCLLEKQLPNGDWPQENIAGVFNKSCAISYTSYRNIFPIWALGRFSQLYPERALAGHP

[2] = biological target: T2, Squalene--hopene cyclase (Alicyclobacillus acidocaldarius subsp. acidocaldarius (strain ATCC27009 / DSM 446 / 104-1A) (Bacillus acidocaldarius), UniProt P33247); experiment: Inhibitory activity against squalene hopene cyclase from Alicyclobacillus acidocaldarius
T2 sequence (P33247 whole entry): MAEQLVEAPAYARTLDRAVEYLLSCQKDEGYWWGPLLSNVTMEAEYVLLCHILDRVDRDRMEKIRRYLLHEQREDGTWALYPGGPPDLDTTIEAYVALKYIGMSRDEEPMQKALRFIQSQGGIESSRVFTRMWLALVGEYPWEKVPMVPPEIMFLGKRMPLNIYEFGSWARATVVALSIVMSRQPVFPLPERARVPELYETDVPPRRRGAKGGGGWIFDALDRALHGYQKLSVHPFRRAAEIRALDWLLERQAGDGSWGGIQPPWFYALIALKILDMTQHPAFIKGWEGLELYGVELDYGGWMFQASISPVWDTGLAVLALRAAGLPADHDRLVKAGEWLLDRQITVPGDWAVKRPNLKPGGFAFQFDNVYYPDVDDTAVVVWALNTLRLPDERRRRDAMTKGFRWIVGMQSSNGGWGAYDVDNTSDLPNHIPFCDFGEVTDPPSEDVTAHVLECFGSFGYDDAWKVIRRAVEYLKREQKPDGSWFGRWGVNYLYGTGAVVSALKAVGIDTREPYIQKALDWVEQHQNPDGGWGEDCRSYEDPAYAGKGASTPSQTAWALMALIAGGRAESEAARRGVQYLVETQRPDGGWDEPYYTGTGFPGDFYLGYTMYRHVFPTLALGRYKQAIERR

Compound	IC50 [1]	IC50 [2]
CN(C(=O)Oc1ccc(Cl)cc1)[C@H]1CC[C@H](c2ccc(C[N+]3([O-])CCCCC3)cc2)CC1	640 nM	123 nM
C=CCN(C[C@H]1C[C@@H]1COc1ccc(C(=O)c2ccc(Br)cc2)cc1)C1CC1	223 nM	
C=CCN(C)CCCCCCOc1ccc(-c2nsc3cc(Br)ccc23)cc1	1900 nM	
C=CCN(C)CCCCCCOc1ccc(C(=O)c2ccc(Br)cc2)cc1	5.4 nM	96 nM
CN(C[C@H]1C[C@@H]1COc1ccc(C(=O)c2ccc(Br)cc2)cc1)C1CC1	22 nM	62 nM
C=CCN(C)C/C=C/COc1ccc(C(=O)c2ccc(Br)cc2)cc1	3 nM	40 nM
C=CCN(C)Cc1ccc(-c2ccc(C(=O)c3ccc(Br)cc3)cc2)cc1	16 nM	
C=CCN(C)C/C=C/COc1ccc2c(-c3ccc(Br)cc3)csc2c1	13.5 nM	75 nM
C=CCN(C)C/C=C/COc1ccc2c(-c3ccc(Br)cc3)coc2c1	500 nM	
C=CCN(C)C/C=C/COc1ccc2c(-c3ccc(Br)cc3)noc2c1	29 nM	49 nM
C=CCN(C)CCCCCCOC1CCN(C(=O)c2ccc(F)cc2)CC1	71 nM	1200 nM
CN(C(=O)Oc1ccc(Cl)cc1)[C@H]1CC[C@H](c2ccc(CN3CCCCC3)cc2)CC1	11.3 nM	
C=CCN(C)CCCCCCOc1ccc2c(c1)CON=C2c1ccc(Br)cc1	4.1 nM	172 nM
C=CCN(C)CCCCCCOc1ccc2c(-c3ccc(Br)cc3)nsc2c1	2.9 nM	

Second part, the compound after the results:

IC50 [1]	IC50 [2]	Compound
48 nM	760 nM	CN(CCCCCCOC1CCN(C(=O)c2ccc(F)cc2)CC1)C1CC1
439 nM	50 nM	CN(C[C@H]1C[C@@H]1COc1ccc(C(=O)c2ccc(Br)cc2)c(F)c1)C1CC1
98 nM	38 nM	CN(CCCCCCOc1ccc(C(=O)c2ccc(Br)cc2)c(F)c1)C1CC1
240 nM	332 nM	C=CCN(C)CCCCCCOc1ccc2c(C)nn(C)c2c1
380 nM	75 nM	C=CCN(C)CCCCCCOc1ccc2c(-c3ccc(Br)cc3)noc2c1
36 nM	2800 nM	O=C(c1ccc(Cl)cc1)N1CCC(=Cc2ccc(C3=NCCO3)cc2)CC1
610 nM		C=CCN(C)CCCCCCOc1ccc2c(-c3ccc(Br)cc3)coc2c1
1860 nM	130 nM	C=CCN(C)C/C=C/COc1ccc(-c2nsc3cc(Br)ccc23)cc1
3.5 nM		C=CCN(C)CCCCCCOc1ccc2c(-c3ccc(Br)cc3)nccc2c1
39 nM		C=CCN(C)CCCCCCOc1ccc2c(-c3ccc(Br)cc3)n[nH]c2c1
19.6 nM		C=CCN(C)CCCCCCOc1ccc2c(-c3ccc(Br)cc3)nn(C)c2c1
